One series has as its system Fibroblast. The series can be described thus: Cytotoxicity against mouse NCTC Fibroblast cells assessed as inhibition of cell growth. The series is classed as functional.
The next series relates to Trypanosoma cruzi. Kind of series: Antitrypanosomal activity against Trypanosoma cruzi trypomastigotes assessed as parasite growth inhibition. The series is classed as functional, organism-based.
The nature of series [1]: Selectivity index, ratio of CC50 for cytotoxicity against mouse NCTC Fibroblast cells assessed as inhibition of cell growth to EC50 for antitrypanosomal activity against Trypanosoma cruzi trypomastigotes assessed as parasite growth inhibition. The format is toxicity, cell-based. As to conditions: read-out: Ratio CC50/EC50; call rule not given here.
Where [2] appears, read: Trypanosoma cruzi, read-out: EC50.

Molecules are shown by their SMILES.

As for `CCCCC(CC)COC(=O)c1ccc([N+](=O)[O-])cc1` (centres undefined), the cytotoxic concentration (CC50) in the series with Fibroblast was more than 200 µM. Besides, the EC50 with Trypanosoma cruzi (setting [2]) was found to be 11.5 µM. The selectivity ratio in series [1] is more than 17.4.

Regarding `CCC/C=C/CCCNC(=O)c1ccc(C(C)(C)C)cc1`, in the series on Fibroblast, the CC50 is more than 200 µM. Moreover, the EC50 in the series with Trypanosoma cruzi (setting [2]) was 7.7 µM. Moreover, in series [1], the selectivity ratio was more than 26.

In the case of `CCC/C=C/CCCNC(=O)c1ccccc1`, the CC50 with Fibroblast was more than 200 µM. In the series on Trypanosoma cruzi (setting [2]), the EC50 came out at 71.3 µM. In addition, the selectivity ratio in series [1] was more than 2.8.

`CCC/C=C/CCCOC(=O)c1ccc(C)cc1`: the CC50 with Fibroblast is more than 200 µM. Further, the EC50 in the series on Trypanosoma cruzi (setting [2]) stood at 11.7 µM. The selectivity ratio in series [1] was more than 17.1.

For the compound `CCCCC(CC)COC(=O)c1ccc(C(C)(C)C)cc1` (centres undefined), the CC50 in the series on Fibroblast was more than 200 µM. Further, the concentration giving a half-maximal response (EC50) result in the series on Trypanosoma cruzi is listed as “Not Active”.

On to `CCCCC(CC)COC(=O)c1ccc(Cl)cc1` (centres undefined), for which, in the series on Fibroblast, the cytotoxic concentration (CC50) was more than 200 µM. In addition, the EC50 in the series with Trypanosoma cruzi (setting [2]) was found to be 15.6 µM. For the same compound, the selectivity ratio in series [1] was more than 12.8.

Regarding `CCCCC(CC)CNC(=O)c1ccc(C(C)(C)C)cc1` (centres undefined), in the series with Fibroblast, the 50% cytotoxic concentration (CC50) was more than 200 µM. Also, in the series on Trypanosoma cruzi, the EC50 result is reported as “Not Active”.

As for `CCC/C=C/CCCOC(=O)c1ccc([N+](=O)[O-])cc1`, the half-maximal cytotoxic concentration (CC50) with Fibroblast was more than 200 µM. Also, the 50% effective concentration (EC50) in the series on Trypanosoma cruzi (setting [2]) came to 5.6 µM. Besides, the selectivity ratio in series [1] was more than 35.1.

In the case of `CCCCC(CC)CNC(=O)c1ccc([N+](=O)[O-])cc1` (centres undefined), the CC50 in the series on Fibroblast is more than 200 µM. The EC50 in the series with Trypanosoma cruzi (setting [2]) worked out at 22 µM. In series [1], the selectivity ratio is more than 9.1.

Regarding `CCC/C=C/CCCOC(=O)c1ccc(F)cc1`, the CC50 with Fibroblast was more than 200 µM. Further, in the series with Trypanosoma cruzi (setting [2]), the half-maximal effective concentration (EC50) worked out at 20.8 µM. Further, in series [1], the selectivity ratio was more than 9.6.

As to `CCCCC(CC)COC(=O)c1ccc(C)cc1` (centres undefined), the 50% cytotoxic concentration (CC50) in the series with Fibroblast is more than 200 µM. Also, the concentration for a half-maximal effect (EC50) with Trypanosoma cruzi (setting [2]) worked out at 19.7 µM. Moreover, the selectivity ratio in series [1] was more than 10.2.

`CCC/C=C/CCCNC(=O)c1ccc(F)cc1`: in the series on Fibroblast, the CC50 is more than 200 µM. Also, the EC50 in the series with Trypanosoma cruzi (setting [2]) was determined as 71.4 µM. The selectivity ratio in series [1] was more than 2.8.

For the compound `CCC/C=C/CCCOC(=O)c1ccc(OC)cc1`, the 50% cytotoxic concentration (CC50) in the series with Fibroblast is more than 200 µM. Moreover, the EC50 in the series on Trypanosoma cruzi (setting [2]) was determined as 15.6 µM. In series [1], the selectivity ratio is more than 12.8.

In the case of `CCC/C=C/CCCNC(=O)c1ccc(OC)cc1`, the CC50 in the series with Fibroblast is more than 200 µM. The EC50 with Trypanosoma cruzi (setting [2]) worked out at 25.9 µM. In series [1], the selectivity ratio is more than 7.7.

Consider `CCCCC(CC)CNC(=O)c1ccc(F)cc1` (centres undefined), for which, in the series on Fibroblast, the half-maximal cytotoxic concentration (CC50) was 157 µM. Besides, the EC50 in the series with Trypanosoma cruzi (setting [2]) is 36.6 µM. For the same compound, the selectivity ratio in series [1] came out at 4.3.

Consider `CCC/C=C/CCCOC(=O)c1ccccc1`, for which, in the series with Fibroblast, the half-maximal cytotoxic concentration (CC50) was more than 200 µM. Besides, the EC50 in the series on Trypanosoma cruzi (setting [2]) is 77.4 µM. The selectivity ratio in series [1] is more than 2.6.

Take `CCC/C=C/CCCNC(=O)c1ccc(C)cc1`: the CC50 in the series with Fibroblast was more than 200 µM. In addition, the EC50 in the series on Trypanosoma cruzi (setting [2]) was found to be 37.7 µM. Further, the selectivity ratio in series [1] was more than 5.3.

`CCC/C=C/CCCNC(=O)c1ccc(Cl)cc1`: the CC50 with Fibroblast was more than 200 µM. In addition, the 50% effective concentration (EC50) in the series on Trypanosoma cruzi (setting [2]) is 28.7 µM. Also, the selectivity ratio in series [1] is more than 7.

Take `CCCCC(CC)COC(=O)c1ccc(F)cc1` (centres undefined): the CC50 in the series with Fibroblast was more than 200 µM. The concentration giving a half-maximal response (EC50) in the series on Trypanosoma cruzi (setting [2]) worked out at 42.4 µM. The selectivity ratio in series [1] is more than 4.7.

Consider `CCCCC/C=C/CCCOC(=O)c1ccc(O)cc1`, for which the cytotoxic concentration (CC50) with Fibroblast is more than 200 µM. Further, the EC50 in the series on Trypanosoma cruzi (setting [2]) stood at 75.3 µM. Further, in series [1], the selectivity ratio is more than 2.7.

Turning to `CCCCC(CC)CNC(=O)c1ccc(Cl)cc1` (centres undefined), the CC50 in the series with Fibroblast is more than 200 µM. Besides, in the series with Trypanosoma cruzi (setting [2]), the EC50 was 20.7 µM. Further, the selectivity ratio in series [1] is more than 9.7.

`CCC/C=C/CCCOC(=O)c1ccc(C(C)(C)C)cc1`: in the series on Fibroblast, the CC50 is more than 200 µM. The EC50 result in the series on Trypanosoma cruzi was “Not Active”.

For `CCC/C=C/CCCNC(=O)c1ccc([N+](=O)[O-])cc1`, the CC50 in the series with Fibroblast came out at 158 µM. The concentration giving a half-maximal response (EC50) in the series with Trypanosoma cruzi (setting [2]) came to 24.4 µM. Also, the selectivity ratio in series [1] turned out to be 6.5.

As for `CCC/C=C/CCCOC(=O)c1ccc(Cl)cc1`, in the series with Fibroblast, the CC50 was more than 200 µM. Besides, in the series on Trypanosoma cruzi (setting [2]), the half-maximal effective concentration (EC50) stood at 19.8 µM. In addition, the selectivity ratio in series [1] is more than 10.1.

As for `CCCCC(CC)CNC(=O)c1ccc(C)cc1` (centres undefined), the CC50 in the series on Fibroblast is more than 200 µM. The 50% effective concentration (EC50) with Trypanosoma cruzi (setting [2]) turned out to be 21.3 µM. For the same compound, the selectivity ratio in series [1] was more than 9.4.

Regarding `O=C(Cn1ccnc1[N+](=O)[O-])NCc1ccccc1` [BENZNIDAZOLE], in the series with Fibroblast, the 50% cytotoxic concentration (CC50) is more than 200 µM. Besides, the selectivity ratio in series [1] was more than 16.

A word on the CC50: it is the concentration giving 50% cytotoxicity. By EC50 is commonly meant the concentration that produces a half-maximal response.
